Series [1] in a line: Flux of acyclovir gels with different drug concentrations (saturation flux comparison). It counts as in vitro ADME. The following applies: in the vehicle of Table 10a.
For series [2] the following is noted: intravenous administration of 7.5-10 mg three times daily; cited from earlier work.

With `Nc1nc2c(ncn2COCCO)c(=O)[nH]1` [acyclovir], the “Acyclovir concentration giving a saturated formulation post-evaporation” value in series [1] is recorded as 0.06 % (w/w). Also, the “Serum concentrations of acyclovir” value in series [2] was 5 to 10 µg/mL.
